Reference: article PMC3133470, “Activity of Cathelicidin Peptides against Simkania negevensis” (International Journal of Peptides, 2011)
Where no end group is shown, it is not given here.

Legend:
[1] = system: Simkania negevensis reference strain Z (ATCC VR-1471); test: Inhibition of Simkania negevensis infectivity (reduction of inclusions) after pre-incubation of elementary bodies with peptide; assay type: cell-based; conditions: purified EBs incubated with peptide 2 h at room temperature in PBS/SPG pH 7.4; tenfold dilutions 100 to 0.01 μg/mL; LLC-MK2 cells, 72 h at 35°C; inclusions by immunofluorescence; untreated control mean 74 IFU/mL; means of three experiments in triplicate
Procedure: The cathelicidin peptides—PG-1 from pig, Bac7 (1–35) from cattle, SMAP-29 from sheep, LL-37 from human, BMAP-27, and BMAP-28 from cattle—were chemically synthesized, purified, characterized, and provided as lyophilized peptide, as previously reported. The reference strain Z of S. negevensis (American Type Culture Collection VR-1471) was grown in LLC-MK2 cells in 6-large well plates and elementary bodies (EBs) were purified by use of sucrose gradients, resuspended in sucrose-phosphate-glutamic acid buffer (SPG) pH 7.4 (75 g sucrose, 87 mL 0.2 M Na2HPO4, 13 mL 0.2 M NaH2PO4, 0.72 g L-glutamic acid), and frozen in aliquots at −80°C.
Stock solutions of each peptide at 1 g/liter were prepared in phosphate-buffered saline (PBS), pH 7.4, and stored frozen in 20-μL aliquots at −80°C until used. To determine the lowest peptide concentration required to achieve ≥50% reduction of inclusions with respect to untreated control, the various peptides were diluted tenfold from 200 to 0.02 μg/mL, in a volume of 100 μL with PBS in polypropylene tubes. An equal volume of 5 × 10^5 inclusion-forming units (IFU)/mL of purified S. negevensis EBs in SPG medium was then added, so obtaining a final cathelicidin concentration ranging from 100 to 0.01 μg/mL in a mixture of PBS and SPG at a final pH 7.4. EBs untreated with cathelicidins were used as a control. After incubation at room temperature for 2 h, a 200 μL aliquot was added to 800 μL chlamydial growth medium and inoculated onto LLC-MK2 cells grown in 24-well plates in a 5% CO2 atmosphere. After centrifugation at 800 × g for 1 h at 33°C and incubation at 35°C for 72 h, the cultures were fixed and stained for the presence of inclusions by immunofluorescence using an in-house rabbit polyclonal hyperimmune serum raised against S. negevensis. The number of IFU per coverslip was counted in 40 microscopic fields using a ZEISS UV microscope at a magnification of ×200.
All tests were performed in triplicate and in three independent experiments.

[2] = system: Chlamydia trachomatis strains; conditions: previous study of the authors; cited from earlier work
Procedure: (§1) With regard to the other chlamydial species tested, only Chlamydophila pneumoniae and Chlamydophila felis were sensitive to 10 μg/mL of SMAP-29 and 80 μg/mL of SMAP-29/Bac7, respectively.

Chlamydophila felis = conditions: previous study of the authors; cited from earlier work
Procedure: as §1

Substance: PG-1: cathelicidin peptide from pig, chemically synthesized; native protegrin-1 has two intramolecular disulfide bonds (RGGRLCYCRRRFCVCVGR; not fully specified (bridges); ends and bridges not checked; also: native protegrin-1 has two intramolecular disulfides, pairing not given here; UniProt P32194 131-148, looked up)
- lowest peptide concentration required to achieve ≥50% reduction of inclusions with respect to untreated control [1]: 1 µg/mL

Substance: LL-37
- lowest peptide concentration required to achieve ≥50% reduction of inclusions with respect to untreated control [1]: > 100 µg/mL
- concentration with inhibitory effect on Chlamydia trachomatis strains [2]: > 80 µg/mL

Substance: Bac7: cathelicidin peptide Bac7 (1–35) from cattle, chemically synthesized (RRIRPRPPRLPRPRPRPLPFPRPGPRPIPRPLPFP; Bactenecin 7; UniProt P19661 131-165, looked up, fragment)
- lowest peptide concentration required to achieve ≥50% reduction of inclusions with respect to untreated control [1]: 0.1 µg/mL
- concentration to which Chlamydophila felis was sensitive (Chlamydophila felis): 80 µg/mL
